Assay results reported in ChEMBL document CHEMBL3885861, “Open TG-GATES”.

Species on record: Rattus norvegicus
Assay: Open TG-GATES - Regimen: Single
Format: toxicity, organism-based, Sprague-Dawley
Parameters: regimen Single, gender Male, age 6 weeks
Conditions: in vivo, po, route gavage; for APTT / Bas / Eos / Fbg / Hb / Ht / Lym / MCH / MCHC / MCV / Mono / Neu / PT / Plat / RBC / Ret / WBC: tissue Blood; for KIDNEY_L / KIDNEY_R / KIDNEY_TOTAL: tissue Kidney; for LIVER: tissue Liver; for A/G / ALP / ALT / AST / BUN / CRE / Ca / Cl / DBIL / GLC / IP / K / LDH / Na / PL / RALB / TBIL / TC / TG / TP / gamma-GTP: tissue Plasma
[1] = 300 mg/kg, 3 h, dose level Middle
[2] = 300 mg/kg, 6 h, dose level Middle
[3] = 300 mg/kg, 9 h, dose level Middle
[4] = 300 mg/kg, 24 h, dose level Middle
[5] = 1000 mg/kg, 3 h, dose level High
[6] = 1000 mg/kg, 6 h, dose level High
[7] = 1000 mg/kg, 9 h, dose level High
[8] = 1000 mg/kg, 24 h, dose level High

COC1=CC(=O)C[C@@H](C)[C@]12Oc1c(Cl)c(OC)cc(OC)c1C2=O [GRISEOFULVIN]
TERMINAL_BW [1]: 212.4 g
APTT [1]: 18.3 s
Bas [1]: 0%
Eos [1]: 1.2%
Fbg [1]: 229.2 mg/dL
Hb [1]: 12.7 g/dL
Ht [1]: 37.4%
Lym [1]: 71.6%
MCH [1]: 21.5 pg
MCHC [1]: 34.1%
MCV [1]: 63.1 fL
Mono [1]: 3.4%
Neu [1]: 23.2%
PT [1]: 12.9 s
Plat [1]: 130.7 x10_4/uL
RBC [1]: 592 x10_4/ul
Ret [1]: 7.8%
WBC [1]: 110.1 x10_2/uL
KIDNEY_L [1]: 0.9 g
KIDNEY_R [1]: 0.9 g
KIDNEY_TOTAL [1]: 1.9 g
LIVER [1]: 9.7 g
A/G [1]: 1.6
ALP [1]: 1144 IU/L
ALT [1]: 40.8 IU/L
AST [1]: 69.2 IU/L
BUN [1]: 11.2 mg/dL
CRE [1]: 0.3 mg/dL
Ca [1]: 11 mg/dL
Cl [1]: 104.2 meq/L
DBIL [1]: 0.2 mg/dL
GLC [1]: 190.4 mg/dL
IP [1]: 8.7 mg/dL
K [1]: 4 meq/L
LDH [1]: 113.8 IU/L
Na [1]: 140.8 meq/L
PL [1]: 175.8 mg/dL
RALB [1]: 3.3 g/dL
TBIL [1]: 0.2 mg/dL
TC [1]: 84.8 mg/dL
TG [1]: 134.8 mg/dL
TP [1]: 5.3 g/dL
gamma-GTP [1]: 1.2 IU/L
TERMINAL_BW [2]: 212.5 g
APTT [2]: 17.7 s
Bas [2]: 0%
Eos [2]: 1%
Fbg [2]: 220.2 mg/dL
Hb [2]: 12.8 g/dL
Ht [2]: 38.1%
Lym [2]: 72.6%
MCH [2]: 21.8 pg
MCHC [2]: 33.6%
MCV [2]: 64.7 fL
Mono [2]: 3.6%
Neu [2]: 22.4%
PT [2]: 13.1 s
Plat [2]: 129.2 x10_4/uL
RBC [2]: 588.6 x10_4/ul
Ret [2]: 7.9%
WBC [2]: 82.9 x10_2/uL
KIDNEY_L [2]: 1 g
KIDNEY_R [2]: 1 g
KIDNEY_TOTAL [2]: 2 g
LIVER [2]: 9.5 g
A/G [2]: 1.8
ALP [2]: 1072.4 IU/L
ALT [2]: 37.2 IU/L
AST [2]: 68.4 IU/L
BUN [2]: 10.2 mg/dL
CRE [2]: 0.4 mg/dL
Ca [2]: 10.8 mg/dL
Cl [2]: 103.2 meq/L
DBIL [2]: 0.096 mg/dL
GLC [2]: 205.6 mg/dL
IP [2]: 9.7 mg/dL
K [2]: 4 meq/L
LDH [2]: 139.2 IU/L
Na [2]: 141.4 meq/L
PL [2]: 150.6 mg/dL
RALB [2]: 3.4 g/dL
TBIL [2]: 0.2 mg/dL
TC [2]: 79 mg/dL
TG [2]: 50.4 mg/dL
TP [2]: 5.4 g/dL
gamma-GTP [2]: 1.4 IU/L
TERMINAL_BW [3]: 210.4 g
APTT [3]: 17.3 s
Bas [3]: 0%
Eos [3]: 0.8%
Fbg [3]: 214 mg/dL
Hb [3]: 12.9 g/dL
Ht [3]: 38.2%
Lym [3]: 79.4%
MCH [3]: 21.4 pg
MCHC [3]: 33.9%
MCV [3]: 63.1 fL
Mono [3]: 2.6%
Neu [3]: 17%
PT [3]: 13.6 s
Plat [3]: 115.4 x10_4/uL
RBC [3]: 605 x10_4/ul
Ret [3]: 8.2%
WBC [3]: 82.6 x10_2/uL
KIDNEY_L [3]: 1 g
KIDNEY_R [3]: 1 g
KIDNEY_TOTAL [3]: 2 g
LIVER [3]: 8.7 g
A/G [3]: 1.6
ALP [3]: 1051.6 IU/L
ALT [3]: 30.8 IU/L
AST [3]: 63 IU/L
BUN [3]: 11.4 mg/dL
CRE [3]: 0.3 mg/dL
Ca [3]: 10.6 mg/dL
Cl [3]: 103.8 meq/L
DBIL [3]: 0.07 mg/dL
GLC [3]: 200.2 mg/dL
IP [3]: 10.3 mg/dL
K [3]: 3.8 meq/L
LDH [3]: 132.4 IU/L
Na [3]: 141.6 meq/L
PL [3]: 140.6 mg/dL
RALB [3]: 3.3 g/dL
TBIL [3]: 0.1 mg/dL
TC [3]: 75 mg/dL
TG [3]: 43 mg/dL
TP [3]: 5.4 g/dL
gamma-GTP [3]: 1.2 IU/L
TERMINAL_BW [4]: 223.4 g
APTT [4]: 18.9 s
Bas [4]: 0%
Eos [4]: 0.8%
Fbg [4]: 204.6 mg/dL
Hb [4]: 13.3 g/dL
Ht [4]: 40%
Lym [4]: 76.2%
MCH [4]: 21.5 pg
MCHC [4]: 33.3%
MCV [4]: 64.5 fL
Mono [4]: 2.4%
Neu [4]: 19.8%
PT [4]: 12.7 s
Plat [4]: 125.2 x10_4/uL
RBC [4]: 621 x10_4/ul
Ret [4]: 7.3%
WBC [4]: 85.6 x10_2/uL
KIDNEY_L [4]: 1 g
KIDNEY_R [4]: 1 g
KIDNEY_TOTAL [4]: 1.9 g
LIVER [4]: 10.9 g
A/G [4]: 1.8
ALP [4]: 958.6 IU/L
ALT [4]: 42.8 IU/L
AST [4]: 64.8 IU/L
BUN [4]: 14.6 mg/dL
CRE [4]: 0.4 mg/dL
Ca [4]: 10.9 mg/dL
Cl [4]: 103.8 meq/L
DBIL [4]: 0.1 mg/dL
GLC [4]: 208 mg/dL
IP [4]: 8.1 mg/dL
K [4]: 4.2 meq/L
LDH [4]: 119.8 IU/L
Na [4]: 141.4 meq/L
PL [4]: 144.6 mg/dL
RALB [4]: 3.4 g/dL
TBIL [4]: 0.2 mg/dL
TC [4]: 76.8 mg/dL
TG [4]: 102 mg/dL
TP [4]: 5.4 g/dL
gamma-GTP [4]: 1.4 IU/L
TERMINAL_BW [5]: 213.3 g
APTT [5]: 19.4 s
Bas [5]: 0%
Eos [5]: 1%
Fbg [5]: 212.2 mg/dL
Hb [5]: 12.2 g/dL
Ht [5]: 35.6%
Lym [5]: 78.4%
MCH [5]: 21.9 pg
MCHC [5]: 34.3%
MCV [5]: 63.7 fL
Mono [5]: 3%
Neu [5]: 17%
PT [5]: 13.2 s
Plat [5]: 124.4 x10_4/uL
RBC [5]: 557.4 x10_4/ul
Ret [5]: 8.3%
WBC [5]: 88.7 x10_2/uL
KIDNEY_L [5]: 0.9 g
KIDNEY_R [5]: 0.9 g
KIDNEY_TOTAL [5]: 1.9 g
LIVER [5]: 9.6 g
A/G [5]: 1.9
ALP [5]: 900 IU/L
ALT [5]: 36 IU/L
AST [5]: 66.6 IU/L
BUN [5]: 10.6 mg/dL
CRE [5]: 0.3 mg/dL
Ca [5]: 11 mg/dL
Cl [5]: 103.6 meq/L
DBIL [5]: 0.2 mg/dL
GLC [5]: 184.2 mg/dL
IP [5]: 8.2 mg/dL
K [5]: 4 meq/L
LDH [5]: 128.4 IU/L
Na [5]: 140.4 meq/L
PL [5]: 179.2 mg/dL
RALB [5]: 3.4 g/dL
TBIL [5]: 0.3 mg/dL
TC [5]: 86 mg/dL
TG [5]: 122.6 mg/dL
TP [5]: 5.2 g/dL
gamma-GTP [5]: 1.6 IU/L
TERMINAL_BW [6]: 211 g
APTT [6]: 18.5 s
Bas [6]: 0%
Eos [6]: 1%
Fbg [6]: 211.2 mg/dL
Hb [6]: 12.7 g/dL
Ht [6]: 37.4%
Lym [6]: 75.6%
MCH [6]: 21.9 pg
MCHC [6]: 34%
MCV [6]: 64.3 fL
Mono [6]: 4%
Neu [6]: 19%
PT [6]: 13.3 s
Plat [6]: 123.4 x10_4/uL
RBC [6]: 582 x10_4/ul
Ret [6]: 7.7%
WBC [6]: 90 x10_2/uL
KIDNEY_L [6]: 1 g
KIDNEY_R [6]: 1 g
KIDNEY_TOTAL [6]: 2 g
LIVER [6]: 9.2 g
A/G [6]: 1.7
ALP [6]: 994.4 IU/L
ALT [6]: 34 IU/L
AST [6]: 66.8 IU/L
BUN [6]: 10.4 mg/dL
CRE [6]: 0.3 mg/dL
Ca [6]: 10.8 mg/dL
Cl [6]: 103.2 meq/L
DBIL [6]: 0.092 mg/dL
GLC [6]: 204 mg/dL
IP [6]: 9.1 mg/dL
K [6]: 4.1 meq/L
LDH [6]: 144.2 IU/L
Na [6]: 141 meq/L
PL [6]: 154.6 mg/dL
RALB [6]: 3.3 g/dL
TBIL [6]: 0.2 mg/dL
TC [6]: 82.8 mg/dL
TG [6]: 45 mg/dL
TP [6]: 5.3 g/dL
gamma-GTP [6]: 1.4 IU/L
TERMINAL_BW [7]: 207.4 g
APTT [7]: 17.9 s
Bas [7]: 0%
Eos [7]: 0.8%
Fbg [7]: 202.4 mg/dL
Hb [7]: 12.4 g/dL
Ht [7]: 36.1%
Lym [7]: 75.2%
MCH [7]: 21.5 pg
MCHC [7]: 34.3%
MCV [7]: 62.8 fL
Mono [7]: 2.2%
Neu [7]: 21.6%
PT [7]: 13.9 s
Plat [7]: 113.3 x10_4/uL
RBC [7]: 575.8 x10_4/ul
Ret [7]: 7.7%
WBC [7]: 71.8 x10_2/uL
KIDNEY_L [7]: 0.9 g
KIDNEY_R [7]: 1 g
KIDNEY_TOTAL [7]: 1.9 g
LIVER [7]: 8.4 g
A/G [7]: 1.8
ALP [7]: 1031 IU/L
ALT [7]: 31.4 IU/L
AST [7]: 67.6 IU/L
BUN [7]: 10.8 mg/dL
CRE [7]: 0.3 mg/dL
Ca [7]: 10.8 mg/dL
Cl [7]: 104.4 meq/L
DBIL [7]: 0.07 mg/dL
GLC [7]: 186.4 mg/dL
IP [7]: 10.1 mg/dL
K [7]: 3.9 meq/L
LDH [7]: 153.2 IU/L
Na [7]: 142.2 meq/L
PL [7]: 134.2 mg/dL
RALB [7]: 3.5 g/dL
TBIL [7]: 0.1 mg/dL
TC [7]: 74.2 mg/dL
TG [7]: 26.8 mg/dL
TP [7]: 5.5 g/dL
gamma-GTP [7]: 1.2 IU/L
TERMINAL_BW [8]: 222.6 g
APTT [8]: 18.9 s
Bas [8]: 0%
Eos [8]: 0.8%
Fbg [8]: 206.4 mg/dL
Hb [8]: 13.1 g/dL
Ht [8]: 39.3%
Lym [8]: 79.2%
MCH [8]: 21.9 pg
MCHC [8]: 33.4%
MCV [8]: 65.5 fL
Mono [8]: 2.6%
Neu [8]: 16.8%
PT [8]: 13 s
Plat [8]: 123.4 x10_4/uL
RBC [8]: 600.4 x10_4/ul
Ret [8]: 8%
WBC [8]: 97.5 x10_2/uL
KIDNEY_L [8]: 1 g
KIDNEY_R [8]: 1 g
KIDNEY_TOTAL [8]: 2 g
LIVER [8]: 10.5 g
A/G [8]: 1.6
ALP [8]: 1124.8 IU/L
ALT [8]: 39.8 IU/L
AST [8]: 69.8 IU/L
BUN [8]: 13.2 mg/dL
CRE [8]: 0.4 mg/dL
Ca [8]: 10.9 mg/dL
Cl [8]: 104 meq/L
DBIL [8]: 0.1 mg/dL
GLC [8]: 212.4 mg/dL
IP [8]: 8.5 mg/dL
K [8]: 4 meq/L
LDH [8]: 148.6 IU/L
Na [8]: 141 meq/L
PL [8]: 153 mg/dL
RALB [8]: 3.3 g/dL
TBIL [8]: 0.2 mg/dL
TC [8]: 88 mg/dL
TG [8]: 88.4 mg/dL
TP [8]: 5.4 g/dL
gamma-GTP [8]: 1.4 IU/L
